Data: article PMC11203799, “Determining the Affinity and Kinetics of Small Molecule Inhibitors of Galectin-1 Using Surface Plasmon Resonance” (International Journal of Molecular Sciences, 2024)

Legend:
[1] = target: T1, mouse galectin-1 (Mus musculus, UniProt P16045); experiment: SPR binding assay, mouse galectin-1
T1 construct: mouse galectin-1 (residues M1-E135); His-tag; made in house; host or cells: E. coli BL21
Experimental: (§1) For SPR studies, His-tagged proteins were expressed in E. coli strain BL21 (human galectin-1 (residues M1-D135) and mouse galectin-1 (residues M1-E135)) and purified as previously described. SDS-PAGE and mass spectrometry were used to confirm protein purity with all proteins stored at −80 °C until use. Human and mouse proteins for FP were produced as previously described.
(§2) The SPR method previously described for galectin-3 proteins was used here for galectin-1 [10]. Briefly, CM3 sensor chip surfaces (Cytiva, Marlborough, MA, USA) were pre-primed and equilibrated in immobilization buffer (10 mM HEPES, 150 mM NaCl (pH 7.4)) using an Amine Coupling Kit (Cytiva, Marlborough, MA, USA) prior to the immobilization of protein (injected at 10 µg/mL in PBS at pH 6.0). […] Chips surfaces were blocked with ethanolamine HCl (pH 8.5) for 420 s upon reaching the immobilization required. Then, EDC/NHS and ethanolamine were used to treat blank surfaces that were protein-free. Running buffer (RB) was used to dilute compounds (10 mM HEPES, 150 mM NaCl, 1 mM DTT, 0.05% Tween 20, 5% DMSO (pH 7.4)), pre-filtered, degassed, and then injected for 1 min at a flow rate of 30 μL/min. […] Following each cycle, the chip surface was auto-regenerated and aided by fast compound off-rates, and a further wash set was completed in RB. […]

[2] = target: T2, human galectin-1 (Homo sapiens, UniProt P09382); experiment: SPR binding assay, human galectin-1
T2 construct: human galectin-1 (residues M1-D135); His-tag; made in house; host or cells: E. coli BL21
T2 sequence (P09382 whole entry, the tested form may be a part): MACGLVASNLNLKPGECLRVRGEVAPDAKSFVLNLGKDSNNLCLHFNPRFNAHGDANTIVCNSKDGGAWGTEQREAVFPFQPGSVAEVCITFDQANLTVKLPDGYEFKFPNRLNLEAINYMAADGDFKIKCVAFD
Experimental: as §1, §2

[3] = target: T2, human galectin-1; experiment: Fluorescence polarization (FP) binding assay, galectin-1; settings: human vs mouse galectin-1
Experimental: as §1

T1 sequence (P16045 whole entry, the tested form may be a part): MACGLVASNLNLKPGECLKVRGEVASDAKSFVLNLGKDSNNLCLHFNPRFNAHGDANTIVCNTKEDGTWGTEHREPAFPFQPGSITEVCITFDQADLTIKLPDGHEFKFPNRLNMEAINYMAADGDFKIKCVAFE

Row | Fold KD Differences SPR Human vs. Mouse Gal-1 ([2]; SPR assay, human vs mouse galectin-1) | Fold KD Differences Human Gal-1 FP vs. SPR ([2]; human galectin-1, FP vs SPR assay format) | Fold KD Differences Mouse Gal-1 FP vs. SPR ([1]; FP vs SPR assay format) | Fold KD Differences FP Human vs. Mouse Gal-1 [3] | Structure (SMILES) | Kd ([1]; koff/kon, 1:1 Langmuir model, 25 °C, read-out: kinetic KD in SPR)
1 |  |  |  |  | OC[C@H]1O[C@@H](S[C@@H]2O[C@H](CO)[C@H](O)[C@H](n3cc(-c4cccc(F)c4)nn3)[C@H]2O)[C@H](O)[C@@H](n2cc(-c3cccc(F)c3)nn2)[C@H]1O [Compound 1, GB0139] | 131 nM
2 | 0.6 fold | 1.8 fold | 1.6 fold | 0.6 fold | OC[C@H]1O[C@H](Sc2cc(Cl)c(F)c(Cl)c2)[C@H](O)[C@@H](n2cc(-c3nccs3)nn2)[C@H]1O [Compound 4, GB1490] | 
